Assays:
[1] = target: T1, yeast Gal4-DNA binding domain fused to the ligand binding domain of human RORγ (Homo sapiens, UniProt P51449); experiment: RORγ Reporter Assay (Gal4); assay type: cell-based; details: values given as lower bounds of ranges
T1 construct: host or cells: HEK293t
T1 sequence (P51449 269-508 limits assumed): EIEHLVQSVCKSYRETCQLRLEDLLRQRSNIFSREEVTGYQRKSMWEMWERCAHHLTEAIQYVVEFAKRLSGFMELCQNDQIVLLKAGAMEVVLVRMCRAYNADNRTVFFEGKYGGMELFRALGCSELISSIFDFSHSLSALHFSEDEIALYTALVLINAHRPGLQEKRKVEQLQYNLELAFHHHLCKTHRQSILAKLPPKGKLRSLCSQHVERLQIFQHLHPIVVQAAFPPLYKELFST
Method in brief: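 HEK293t reporter cells expressing the hybrid, with Gal4-UAS-driven firefly luciferase, treated in triplicate with compound at 1,000 nM and 100 nM (0.1% DMSO) in medium with 10% charcoal-stripped FBS for 24 h at 37 °C. Luminescence read; percent reduction of RLU calculated relative to vehicle.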

[2] = system: female C57BL/6 mice; experiment: Experimental Autoimmune Encephalomyelitis (EAE) Study; assay type: in vivo; details: 10 and 30 mg/kg, orally twice daily, 25 days
[3] = system: male DBA/1J mice; experiment: Collagen-Induced Arthritis (CIA) Study; assay type: in vivo; details: orally twice daily
Description: Collagen-induced arthritis is an animal model of rheumatoid arthritis used to evaluate the efficacy of test compounds. CIA was induced at Washington Biotechnology Inc. (Baltimore) in male DBA/1J mice (Jackson Laboratories) by subcutaneous injection at the base of the tail with 50 μl of a bovine collagen/complete Freund's adjuvant emulsion. After 21 days, the mice were further boosted by a further subcutaneous injection of 50 μl of a collagen/incomplete Freund's adjuvant emulsion. For treatment, compound or vehicle (2% DMSO, 10% HP-β-CD in MilliQ water) was given orally twice daily at various doses selected from 3, 10, 30 mg/kg, beginning at the day of CIA induction (Prophylactic setting), or after disease initiation (at day 27, therapeutic setting). Treatment lasted until day 41, and the animals were scored three times weekly. Each paw was scored and the sum of all four scores was recorded as the Arthritic Index (AI). The maximum possible AI was 16.0=no visible effects of arthritis; 1=edema and/or erythema of one digit; 2=edema and/or erythema of 2 joints; 3=edema and/or erythema of more than 2 joints; 4=severe arthritis of the entire paw and digits including limb deformation and ankylosis of the joint. The Arthritis Index for each treatment can be expressed as the mean score for each treatment group+/−S.E.M.

[4] = target: T2, human RORγt (Ligand Binding Domain) (Homo sapiens, UniProt P51449); experiment: Fluorescence Polarization (FP) Assay; details: Fluorescence Polarization (FP) Assay; values given as upper bounds of activity ranges; read-out: FP activity range
T2 construct: purchased Crelux (Planegg, Germany) batch no PC5032-1
T2 sequence (P51449 269-508 limits assumed): T1 sequence (P51449 269-508 limits assumed)
Method in brief: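 In vitro FP binding assay monitoring ligand binding within the ligand binding pocket. Probe is a TAMRA-labelled RORγt ligand (MW 910 g/mole); DMSO served as negative control.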

NC(=O)Cc1ccc(CNc2ncnc(N3CCOC[C@@H]3c3ccc(C(F)(F)F)cc3)c2F)cc1 [Example 204, 2-[4-[[[5-fluoro-6-[(3S)-3-[4-(trifluoromethyl)phenyl]morpholin-4-yl]pyrimidin-4-yl]amino]methyl]phenyl]acetamide]
Gal4 activity range @ 0.1 μM (% inhibition) ([1]; RORγ Reporter Assay (Gal4) at 0.1 μM): >50 % inhibition
Gal4 activity range @ 1 μM (% inhibition) ([1]; RORγ Reporter Assay (Gal4) at 1 μM): >80 % inhibition
EAE clinical score [2]: lower clinical score
onset of EAE [2]: delay onset
CIA disease development, therapeutic setting ([3]; 30 mg/kg, from day 27): arrest disease development
CIA disease severity, prophylactic setting ([3]; 10 and 30 mg/kg, from day of CIA induction): significantly reduce disease severity
IC50 [4]: < 500 nM
